molecular target: T1, Human Neutrophil Elastase (HNE) (Homo sapiens, UniProt P08246); assay: Human Neutrophil Elastase Quenched-FRET Assay; assay type: biochemical; details: HNE purified from serum 1.7 nM, substrate MeOSuc-AAPV-AMC 100 μM, 30 minutes at room temperature; read-out: Inhibition of Human Neutrophil Elastase IC50
T1 construct: Human Neutrophil Elastase (HNE) purified from serum; purchased Calbiochem 324681; host or cells: purified from human serum (so in the source)
T1 sequence (P08246 30-247 limits assumed): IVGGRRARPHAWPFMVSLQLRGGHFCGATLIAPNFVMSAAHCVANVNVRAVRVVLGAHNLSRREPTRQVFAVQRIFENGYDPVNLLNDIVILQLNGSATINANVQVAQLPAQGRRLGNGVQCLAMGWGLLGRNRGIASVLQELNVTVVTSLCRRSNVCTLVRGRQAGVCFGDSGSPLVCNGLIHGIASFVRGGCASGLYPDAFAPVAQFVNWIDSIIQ
Protocol: Human Neutrophil Elastase Quenched-FRET Assay
HNE was stored in 50 mM sodium acetate (NaOAc), 200 mM sodium chloride (NaCl), pH 5.5 with added 30% glycerol at −20° C. […] The substrate was stored in dimethyl sulphoxide (DMSO) at −20° C. […] The assay buffer constitution was: 100 mM Tris(hydroxymethyl)aminomethane (TRIS) (pH 7.5) and 500 mM NaCl. The enzyme and the compounds were incubated at room temperature for 15 minutes. Then 30 μl substrate in assay buffer was added. The assay was incubated for 30 minutes at room temperature. […] The assay was then stopped by adding 60 μl stop solution (140 mM acetic acid, 200 mM sodium monochloroacetate, 60 mM sodium acetate, pH 4.3).

IC50 [nM] | Compound
9 | Cc1c([S+]([O-])c2ccc(C#N)cc2)cc(C(=O)NCC2(O)CC2)c(=O)n1-c1cccc(C(F)(F)F)c1 (stereo not shown) [Example 27, 5-[(4-Cyanophenyl)sulfinyl]-N-[(1-hydroxycyclopropyl)methyl]-6-methyl-2-oxo-1-[3-(trifluoromethyl)phenyl]-1,2-dihydropyridine-3-carboxamide]
4 | Cc1c([S+]([O-])c2ccc(C#N)cc2)cc(C(=O)NCC(C)O)c(=O)n1-c1cccc(C(F)(F)F)c1 (stereo not shown) [Example 49, 5-[(4-Cyanophenyl)sulfinyl]-N-(2-hydroxypropyl)-6-methyl-2-oxo-1-[3-(trifluoromethyl)phenyl]-1,2-dihydropyridine-3-carboxamide]
14 | CC(=O)Nc1ccc(S(=O)(=O)c2cc(C(=O)NCc3ccc(S(C)(=O)=O)cc3)c(=O)n(-c3cccc(C(F)(F)F)c3)c2C)cc1 [Example 59, 5-{[4-(Acetylamino)phenyl]sulfonyl}-6-methyl-N-[4-(methylsulfonyl)benzyl]-2-oxo-1-[3-(trifluoromethyl)phenyl]-1,2-dihydropyridine-3-carboxamide]
45 | Cc1c(S(=O)(=O)O)cc(C(=O)NCc2ccc(S(C)(=O)=O)cc2)c(=O)n1-c1cccc(C(F)(F)F)c1 [Example 86, 2-Methyl-5-({[4-(methylsulfonyl)benzyl]amino}carbonyl)-6-oxo-1-[3-(trifluoromethyl)phenyl]-1,6-dihydropyridine-3-sulfonic acid]
